Experimental data reported in US20100222421A1, “Usage of Baicalein in the Preparation of a Pharmaceutical Composition for the Treatment of Traumatic Brain Injury” (National Defense Medical Center, priority 2009, published 2010).

System: IL-1β protein
Experiment: ELISA, IL-1β protein after CCI injury
Assay type: in vivo, rat
Settings: single-dose 30 mg kg^-1 i.p.; ipsilateral cortex, 1 day post-injury; P<0.01
Protocol: A previously described CCI injury procedure was utilized (Chen et al., 2003). Male Sprague-Dawley rats, which have body weight of 250-300 g, were anaesthetized with sodium pentobarbital (i.p.; 50 mgkg^−1; Rhone Merieux, Harlow, UK) and placed in a stereotaxic frame. A 5-mm craniotomy was performed over the left parietal cortex, centered on the coronal suture and 3 mm lateral to the sagittal suture. Considerable care was taken to avoid injury to the underlying dura. Injury was made using a pneumatic piston with a rounded metal tip (2.5 mm diameter) that was angled 22.5° C. to the vertical so that the tip was perpendicular with the brain surface at the centre of the craniotomy. A velocity of 4 ms^−1 and a deformation depth 2 mm below the dura were used. […] Body temperature was monitored throughout the surgery by a rectal probe; temperature was maintained at 37.0±0.5° C. using a heated pad. […]
Single-dose baicalein (30 mg kg^−1) or a corresponding volume of vehicle was administered i.p. immediately following injury. […] Testing after injury was as follows: (1) real-time quantitative RT-PCR analysis for TNF-α, IL-1β and IL-6 mRNA expression at 6 h post-injury (n=7 for each group); (2) FluoroJade B (FJB) staining, TNF-α, IL-1β and IL-6 immunohistochemistry, as well as ELISA at 24 h post-injury to assess degenerative neurons and to determine cytokine expression (n=7 for each group). […]

O=c1cc(-c2ccccc2)oc2cc(O)c(O)c(O)c12 [baicalein] was tested, and the “IL-1β protein concentration, % of concentration in vehicle-treated rats” value was 42%.
